Experimental data published in patent US7855290B2, “Pyridine derivatives and pyrimidine derivatives (3)” (Eisai R&D Management Co., Ltd., priority 2005, dated 2010).

Tests used:
[1] = system: Human gastric cancer cells (MKN-45); assay: Inhibitory activity against the proliferation of human gastric cancer cells (MKN-45); type: cell-based; conditions: 72 h, MKN-45, 1% FBS RPMI1640, 3 days, Cell Counting Kit-8
Procedure: Human gastric cancer cells (MKN-45) were suspended in a 1% FBS-containing RPMI1640 medium (purchased from Sigma). The cell suspension (1×10^4 cells/ml) was added in a 96-well plate for cell culture (purchased from NUNC, Production No. 167008) at 0.1 ml/well, and then cultured in a 5% CO2 incubator (37° C.) overnight. After the culture, each well was supplied with 0.1 ml of a test substance diluted with a 1% FBS-containing RPMI1640 medium, followed by culturing in a 5% CO2 incubator (37° C.) for 3 days. After the culture, each well was supplied with 10 μl of Cell Counting Kit-8 (purchased from DOJINDO, Production No. 343-07623), followed by incubation in a 5% CO2 incubator (37° C.) for about 1.5 hrs. After the incubation, using the Plate Reader MTP-500 (Corona Electric), the absorbance of each well was determined at a measurement wavelength of 450 nm and a reference wavelength of 660 nm.

[2] = target: T1, His6-HGFR (HGFR cytoplasmic domain) (Homo sapiens, UniProt P08581); assay: Inhibitory activity against HGFR tyrosine kinase activity (HTRF); type: biochemical; conditions: biotin-poly(GT), ATP, 30° C. 10 min
T1 construct: made in house; host or cells: Sf9 insect cells (Spodoptera frugiperda), baculovirus, pFastBac-HT vector
Source text: The cytoplasmic domain of HGFR (Genbank Accession No. J02958) is a 1.3 kb DNA fragment beginning with Lys974 and including a stop codon, and described by Park et al. (Proc. Natl. Acad. Sci. U.S.A. 84(18), 6379-6383, 1987). The DNA fragment was isolated from the human placental cDNA library (purchased from Clontech) by PCR (TaKaRa Ex Taq™ Kit, purchased from TaKaRa) using two kinds of primers (SEQ ID NO: 1,5′-[…]-3′ and SEQ ID NO: 2,5′-[…]-3′, purchased from Invitrogen). The DNA fragment was cloned into a baculovirus transplace vector (pFastBac™-HT (purchased from GIBCO BRL)) to produce a recombinant construct. […] EGFR was purchased from Sigma (Production No. E-2645).
To the suspension of Sf9 cells (3×10^8 cells) in SF-900II medium (purchased from Invitrogen) containing 2% FBS was added a solution of HGFR transfected baculovirus above (4 ml), followed by a shaking culture at 27° C. for 48 hrs. The cells infected with the HGFR transfected baculovirus were centrifuged at 1,000 rpm, 4° C. for 5 min to remove the supernatant. The precipitated infected cells were suspended in 80 ml of ice-cold PBS, and centrifuged at 1,000 rpm, 4° C. for 5 min to remove the supernatant. The precipitated infected cells were suspended in 40 ml of ice-cold Lysis Buffer (50 mM Tris-HCl (pH 8.5), 5 mM 2-mercaptoethanol, 100 mM KCl, 1 mM PMSF and 1% (v/v) NP-40). The suspension was centrifuged at 12,000 rpm, 4° C. for 30 min to provide a supernatant.
The supernatant was loaded onto an Ni-NTA agarose column (3 ml, purchased from Qiagen) equilibrated with 30 ml of Buffer A (20 mM Tris-HCl (pH 8.5), 5 mM 2-mercaptoethanol, 500 mM KCl, 20 mM imidazole and 10% (v/v) glycerol). The column was washed with 30 ml of Buffer A, 6 ml of Buffer B (20 mM Tris-HCl (pH 8.5), 5 mM 2-mercaptoethanol, 1 M KCl, and 10% (v/v) glycerol) and 6 ml of Buffer A in this order. Then, the column was eluted with 6 ml of Buffer C (20 mM Tris-HCl (pH 8.5), 5 mM 2-mercaptoethanol, 100 mM KCl, 100 mM imidazole, and 10% (v/v) glycerol) to provide a fraction. The fraction was entrapped in a dialysis membrane (purchased from Spectrum Laboratories), dialyzed at 4° C. overnight with 1 L of dialysis buffer (20 mM Tris-HCl (pH 7.5), 10% (v/v) glycerol, 1 mM dithiothreitol, 0.1 mM Na3VO4 and 0.1 mM EGTA), and stored at −80° C. until used. […] The VEGFR2 cytoplasmic domain, the FGFR1 cytoplasmic domain, and the PDGFRβ cytoplasmic domain were fused with six histidine at the N terminus by the similar method to produce respective recombinant proteins (His6-VEGFR2, His6-FGFR1, and His6-PDGFRβ).
To each well of a 96-well round plate (purchased from NUNC, Production No. 163320) were added 10 μl of a solution for kinase reaction (200 mM Hepes (pH 7.4), 80 mM MgCl2, 16 mM MnCl2 and 2 mM Na3VO4), 250 ng of biotinylated poly(Glu4: Tyr1) (biotin-poly(GT), purchased from Japan Schering) (6 μl, 15-fold diluted with distilled water), 30 ng of His6-HGFR (10 μl, 60-fold diluted with 0.4% BSA) and a test substance dissolved in dimethylsulfoxide (4 μl, 100-fold diluted with 0.1% BSA) to mess up to 30 μl. To the well was added 10 μl of 4 μM ATP (purchased from Sigma) diluted with distilled water to incubate at 30° C. for 10 min, followed by adding 10 μl of 500 mM EDTA (pH 8.0) (purchased from Wako Pure Chemicals) to provide a kinase reaction solution.
The tyrosine-phosphorylated biotin-poly(GT) was detected using the Homogenous Time-Resolved Fluorescence (HTRF) method (Analytical Biochemistry, 269, 94-104, 1999).

T1 sequence (P08581 956-1390 limits assumed): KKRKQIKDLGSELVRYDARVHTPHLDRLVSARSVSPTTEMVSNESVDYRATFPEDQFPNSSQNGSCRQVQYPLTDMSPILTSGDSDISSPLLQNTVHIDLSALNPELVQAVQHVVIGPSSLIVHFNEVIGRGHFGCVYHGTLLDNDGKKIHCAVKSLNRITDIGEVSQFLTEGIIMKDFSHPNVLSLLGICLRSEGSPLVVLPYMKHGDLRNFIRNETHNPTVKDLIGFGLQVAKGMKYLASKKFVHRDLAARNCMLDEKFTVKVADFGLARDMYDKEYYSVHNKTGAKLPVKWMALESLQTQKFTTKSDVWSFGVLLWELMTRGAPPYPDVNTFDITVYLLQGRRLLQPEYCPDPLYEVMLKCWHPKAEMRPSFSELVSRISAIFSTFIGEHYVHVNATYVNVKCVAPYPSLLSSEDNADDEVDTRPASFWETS

Row | SMILES | IC50 [1] | IC50 [2]
1 | O=C(Nc1cc(Oc2ccc(NC(=O)C3(C(=O)Nc4ccc(F)cc4)CC3)c(F)c2)ccn1)N1CCC(N2CCCC2)CC1 [Example 4, N-(4-Fluorophenyl)-N′-{2-fluoro-4-[(2-{[(4-pyrrolidin-1-ylpiperidin-1-yl)carbonyl]amino}pyridin-4-yl)oxy]phenyl}cyclopropane-1,1-dicarboxamide] | 21 nM | 45 nM
2 | CN(C)CC1CCN(C(=O)Nc2cc(Oc3ccc(NC(=O)C4(C(=O)Nc5ccc(F)cc5)CC4)c(F)c3)ccn2)CC1 [Example 8, N-[4-({2-[({4-[(Dimethylamino)methyl]piperidin-1-yl}carbonyl)amino]pyridin-4-yl}oxy)-2-fluorophenyl]-N′-(4-fluorophenyl)cyclopropane-1,1-dicarboxamide] | 20 nM | 48 nM
3 | O=C(Nc1cc(Oc2ccc(NC(=O)C3(C(=O)Nc4ccc(F)cc4)CC3)c(F)c2)ccn1)N1CCC(N2CCC2)CC1 [Example 9, N-{4-[(2-{[(4-Azetidin-1-ylpiperidin-1-yl)carbonyl]amino}pyridin-4-yl)oxy]-2-fluorophenyl}-N′-(4-fluorophenyl)cyclopropane-1,1-dicarboxamide] | 26 nM | 53 nM
4 | O=C(Nc1cc(Oc2ccc(NC(=O)C3(C(=O)Nc4ccc(F)cc4)CC3)cc2F)ccn1)N1CCC(N2CCCC2)CC1 [Example 10, N-(4-Fluorophenyl)-N′-{3-fluoro-4-[(2-{[(4-pyrrolidin-1-ylpiperidin-1-yl)carbonyl]amino}pyridin-4-yl)oxy]phenyl}cyclopropane-1,1-dicarboxamide] | 42 nM | 54 nM
5 | O=C(Nc1cc(Oc2ccc(NC(=O)C3(C(=O)Nc4ccc(F)cc4)CC3)cc2F)ccn1)N1CCC(N2CCC2)CC1 [Example 11, N-{4-[(2-{[(4-Azetidin-1-ylpiperidin-1-yl)carbonyl]amino}pyridin-4-yl)oxy]-3-fluorophenyl}-N′-(4-fluorophenyl)cyclopropane-1,1-dicarboxamide] | 34 nM | 46 nM
6 | CN1CCC(N(C)C(=O)Nc2cc(Oc3ccc(NC(=O)C4(C(=O)Nc5ccc(F)cc5)CC4)cc3)ccn2)CC1 [Example 12] | 31 nM | 37 nM
7 | O=C(Nc1cc(Oc2ccc(NC(=O)C3(C(=O)Nc4ccc(F)cc4)CC3)cc2)ccn1)N1CCC(N2CCC2)CC1 [Example 13, N-{4-[(2-{[(4-Azetidin-1-ylpiperidin-1-yl)carbonyl]amino}pyridin-4-yl)oxy]phenyl}-N′-(4-fluorophenyl)cyclopropane-1,1-dicarboxamide] | 76 nM | 55 nM
8 | CN(C)C1CCN(C(=O)Nc2cc(Oc3ccc(NC(=O)C4(C(=O)Nc5ccc(F)cc5)CC4)c(F)c3)ccn2)CC1 [Example 18, N-(4-{[2-({[4-(Dimethylamino)piperidin-1-yl]carbonyl}amino)pyridin-4-yl]oxy}-2-fluorophenyl)-N′-(4-fluorophenyl)cyclopropane-1,1-dicarboxamide] | 33 nM | 53 nM

The next compounds have a lower IC50 [1] than those just listed; values first:

Row | IC50 [1] | IC50 [2] | SMILES
9 | 13 nM | 66 nM | CN1CCC(N(C)C(=O)Nc2cc(Oc3ccc(NC(=O)C4(C(=O)Nc5ccc(F)cc5)CC4)cc3F)ccn2)CC1 [Example 1, N-(3-Fluoro-4-{[2-({[methyl(1-methylpiperidin-4-yl)amino]carbonyl}amino)pyridin-4-yl]oxy}phenyl)-N′-(4-fluorophenyl)cyclopropane-1.1-dicarboxamide]
10 | 18 nM | 55 nM | CN(C)CCN1CCN(C(=O)Nc2cc(Oc3ccc(NC(=O)C4(C(=O)Nc5ccc(F)cc5)CC4)c(F)c3)ccn2)CC1 [Example 2, N-[4-({2-[({4-[2-(Dimethylamino)ethyl]piperazin-1-yl}carbonyl)amino]pyridin-4-yl}oxy)-2-fluorophenyl]-N′-(4-fluorophenyl)cyclopropane-1,1-dicarboxamide]
11 | 15 nM | 39 nM | CN1CCC(N(C)C(=O)Nc2cc(Oc3ccc(NC(=O)C4(C(=O)Nc5ccc(F)cc5)CC4)c(F)c3)ccn2)CC1 [Example 3, N-(2-Fluoro-4-{[2-({[methyl(1-methylpiperidin-4-yl)amino]carbonyl}amino)pyridin-4-yl]oxy}phenyl)-N′-(4-fluorophenyl)cyclopropane-1,1-dicarboxamide]
12 | 18 nM | 51 nM | CN(C)CCN1CCN(C(=O)Nc2cc(Oc3ccc(NC(=O)C4(C(=O)Nc5ccc(F)cc5)CC4)cc3F)ccn2)CC1 [Example 7, N-[4-({2-[({4-[2-(Dimethylamino)ethyl]piperazin-1-yl}carbonyl)amino]pyridin-4-yl}oxy)-3-fluorophenyl]-N′-(4-fluorophenyl)cyclopropane-1,1-dicarboxamide]
13 | 17 nM | 60 nM | CN(C)C1CN(C2CCN(C(=O)Nc3cc(Oc4ccc(NC(=O)C5(C(=O)Nc6ccc(F)cc6)CC5)c(F)c4)ccn3)CC2)C1 [Example 14, N-[4-({2-[({4-[3-(Dimethylamino)azetidin-1-yl]piperidin-1-yl}carbonyl)amino]pyridin-4-yl}oxy)-2-fluorophenyl]-N′-(4-fluorophenyl)cyclopropane-1,1-dicarboxamide]
14 | 17 nM | 64 nM | CN1CCC(N2CCN(C(=O)Nc3cc(Oc4ccc(NC(=O)C5(C(=O)Nc6ccc(F)cc6)CC5)c(F)c4)ccn3)CC2)CC1 [Example 16, N-(2-Fluoro-4-{[2-({[4-(1-methylpiperidin-4-yl)piperazin-1-yl]carbonyl}amino)pyridin-4-yl]oxy}phenyl)-N′-(4-fluorophenyl)cyclopropane-1,1-dicarboxamide]
15 | 14 nM | 48 nM | CN1CC(N2CCN(C(=O)Nc3cc(Oc4ccc(NC(=O)C5(C(=O)Nc6ccc(F)cc6)CC5)c(F)c4)ccn3)CC2)C1 [Example 17]
16 | 12 nM | 61 nM | CN1CCC(N2CCN(C(=O)Nc3cc(Oc4ccc(NC(=O)C5(C(=O)Nc6ccc(F)cc6)CC5)cc4F)ccn3)CC2)CC1 [Example 19, N-(3-Fluoro-4-{[2-({[4-(1-methylpiperidin-4-yl)piperazin-1-yl]carbonyl}amino)pyridin-4-yl]oxy}phenyl)-N′-(4-fluorophenyl)cyclopropane-1,1-dicarboxamide]
17 | 15 nM | 59 nM | CN1CCN(C2CCN(C(=O)Nc3cc(Oc4ccc(NC(=O)C5(C(=O)Nc6ccc(F)cc6)CC5)cc4F)ccn3)CC2)CC1 [Example 20, N-(3-Fluoro-4-{[2-({[-4-(4-methylpiperazin-1-yl)piperidin-1-yl]-carbonyl}amino)pyridin-4-yl]oxy}phenyl)-N′-(4-fluorophenyl)cyclopropane-1,1-dicarboxamide]
